Patent publication US20210047278A1, “E3 UBIQUITIN LIGASE AGONISTS, PHARMACEUTICAL COMPOSITIONS INCLUDING THE E3 UBIQUITIN LIGASE AGONISTS, RELATED METHODS OF USE” (FRED HUTCHINSON CANCER RESEARCH CENTER, priority 2018, published 2021)
Like-named read-outs stand apart in the source and are kept apart here.

Experiments:
Format in all cases: binding
FBW7^ARG+pCycE = molecular target: T1, FBW7^ARG+pCycE (Homo sapiens, UniProt Q969H0, R505L); test: FBW7^ARG-cyclin E agonist ALPHAscreen (primary PRUN, confirmation CRUN1, dose-response DRUN); details: for EC50 / Emax: DRUN dose-response; for Emax: relative to WT-FBW7+pCycE, read-out: FBW7 ACT Averaged Max % Response
T1 construct: GST (TEV site and flexible linker) (N, cleaved yes); made in house; host or cells: SF9 insect cells (baculovirus)
Text: FBW7^ARG refers to a class of loss-of-function mutations of the of FBW7 ubiquitin ligase that target a key phosphate-binding arginine residue in the FBW7 substrate-binding domain. These mutations are commonly found in human cancers and promote tumorigenesis by impairing the interactions between FBW7 and its substrates, such as cyclin E and Myc. Described herein is a high throughput screen (HTS) to identify agonists, such as small molecules, that augment FBW7^ARG-substrate binding. In an embodiment, the HTS is based on the Amplified Luminescent Proximity Homogenous Assay (ALPHAscreen) because it detects protein-protein interactions with a large dynamic range. ALPHAscreen is a bead-based proximity assay wherein donor beads contain a photosensitizer, phthalocyanine, and acceptor beads contain thioxene, anthracene and rubrenein in sufficient quantities to generate a chemiluminescence/fluorescence reaction (FIG. 4A). Upon excitation with excitation illumination, such as light having a wavelength of 680 nm, of the donor beads, phthalocyanine converts ambient oxygen to singlet oxygen, which can diffuse approximately 200 nm within its 4-microsecond half-life. If an acceptor bead is in close proximity to an excited donor bead, singlet oxygen transfers its energy to the acceptor, resulting in emitted light at a broad bandwidth of −520-620 nm. The HTS-compatible FBW7/cyclin E ALPHAscreen assay described herein uses streptavidin coupled donor beads and Ni-chelate acceptor beads. In this assay, biotinylated cyclin E phosphopeptide and the His-tagged FBW7 mutant protein have high affinity for the donor and acceptor beads, respectively (FIG. 4B). A small molecule that is able to bridge the binding sites of the peptide and the mutant protein (or induce a conformational change that increases affinity of the protein for the peptide) will bring the donor and acceptor beads in close proximity to each other, resulting in an ALPHA signal. As designed, this assay format is a very sensitive, non-radioactive, homogenous “mix-and-read” format that is HT compatible in 384 and 1536 well formats.
In the 384-well screening assay, 10 uL of acceptor beads with 25 nM of the FBW7^ARG (RLFBW7) are dispensed to test wells; acceptor beads with 25 nM of the wt-FBW7 protein (WTFBW7) are dispensed to control wells. Test compounds are then added by pintool transfer and the mixture is incubated for 30 minutes. An additional 10 uL of donor beads with 25 nM cyclin E phosphopeptide is then added to all wells and the plate is incubated for 4 hours before the ALPHA signal is measured.
In preparation for large-scale screening, the assay was miniaturized to a 1536-well format. The miniaturized screen performed outstandingly in all respects. The screen was enhanced with respect to several parameters and assayed its performance using mutant FBW7 and wt-FBW7, as well as non-specific assay agonists. […] For example, the following Z′-scores/FBW7 concentrations were obtained: 6.25 nM/Z′=0.62, 12.5 nm/Z′=0.85, 25.0 nM/Z′=0.84.
1. Add 2.5 uL of RLFBW7/cycE˜P/Ni beads: Final [25 nM/25 nM/10 ug/ml].
2. Add 2.5 uL of WTFBW7/cycE˜P/Ni beads: Final [25 nM/25 nM/10 ug/ml].
4. Add 2.5 uL of SA beads to all wells Final [10 ug/ml],
5. Add 30 nL of compounds,
6. Read ALPHAscreen on Envision
The large-scale FBW7 agonist ALPHAscreen was completed using FBW7^ARG and a phosphorylated cyclin E (pCycE) degron peptide. Wt-FBW7+pCycE-peptide was the “high control”, and Wt-FBW7+unphosph. CycE peptide was the “low control”. The screen was performed on the 645,000-compound Scripps Diversity Library using 1536-well format and drug concentrations of 26.1 μM. An algorithm aided hit identification based on the average percent activation for all compounds and their standard deviation.
A confirmation assay of all 853 compounds in triplicate using a single concentration (26.1 μM). […]

FBW7^ARG (RLFBW7) alone = molecular target: T2, FBW7^ARG (RLFBW7) alone (Homo sapiens, UniProt Q969H0, R505L); test: Counterscreen 1 ALPHAscreen with FBW7^ARG alone (CSRUN1/DCSRUN1); details: dose-response counterscreen; for Emax: read-out: RLFBW7 ACT DCSRUN1 Averaged Max % Response
T2 construct: GST (TEV site and flexible linker) (N, cleaved yes); made in house; host or cells: SF9 insect cells (baculovirus)
Description: (§1) Studies in 384-well format were performed using the ENVISION system. Reagent concentrations (see FIG. 6A), order of addition, pH (see FIG. 6B), and reducing agent were altered with the goal of enhancing the dynamic range between wt-FBW7 (the positive control) and FBW7^ARG (FIG. 6 and not shown). Wt-FBW7 produced a signal 100× greater with phosphorylated cyclin E degron peptide compared with unphosphorylated, which represents the assay's maximum range (FIG. 6C). […] This assay thus detects the residual affinity of the FBW7^ARG-substrate interaction, which, as predicted, is stronger than wt-FBW7 protein with unphosphorylated cyclin E peptide. Concurrent with this primary assay, counter ALPHAscreens were developed which omitted either FBW7 or peptide (to eliminate hits that are general ALPHAscreen agonists), or used an irrelevant phosphopeptide (to eliminate compounds that simply augment binding to phosphopeptides). […]
(§2) The 77 hits were subjected to a dose-response assay in which each compound was tested in triplicate in a 10 point 3-fold dilutional series, to a maximum concentration of approximately 87 μM. Three screens were performed, using FBW7^ARG+pCycE (DRUN), FBW7^ARG (DCSRUN1), or pCycE alone (DCSRUN2). See TABLES 2, 3, and 4, respectively, and FIG. 10A. All of the assays performed extremely well, and threshold of 10% activation (relative to WT-FBW7+pCycE) was set as positive. […] Many hits fell into shared structure cluster ID groups, reinforcing the idea that they function as specific agonists (see below and TABLE 5).

pCycE alone = test: Counterscreen 2 ALPHAscreen with cyclin E phosphopeptide alone (CSRUN2/DCSRUN2); details: for CyCEP ACT DCSRUN2 Averaged Max % Response: activation relative to WT-FBW7+pCycE, averaged maximum; for EC50: dose-response, triplicate, 10 point 3-fold dilutional series, read-out: CyCEP ACT DCSRUN2 Final EC50
Description: as §1, §2

[1] = raw curve fit, read-out: FBW7 ACT EC50 Curve Fit Raw, Molar
[2] = triplicate, 10 point 3-fold dilution, max approx. 87 μM, read-out: FBW7 ACT Final EC50, Molar
[3] = confirmation assay, triplicate, single concentration 26.1 μM, read-out: FBW7 ACT CRUN1 Avg % Response and Stdev
[4] = primary screen, 1536-well, 26.1 μM, FBW7^ARG + pCycE degron peptide, high control wt-FBW7+pCycE, read-out: FBW7 ACT PRUN % Response
[5] = raw curve fit, read-out: RLFBW7 ACT DCSRUN1 EC50 Curve Fit Raw
[6] = read-out: RLFBW7 ACT DCSRUN1 Final EC50

T1 sequence (Q969H0 64-707 R505L): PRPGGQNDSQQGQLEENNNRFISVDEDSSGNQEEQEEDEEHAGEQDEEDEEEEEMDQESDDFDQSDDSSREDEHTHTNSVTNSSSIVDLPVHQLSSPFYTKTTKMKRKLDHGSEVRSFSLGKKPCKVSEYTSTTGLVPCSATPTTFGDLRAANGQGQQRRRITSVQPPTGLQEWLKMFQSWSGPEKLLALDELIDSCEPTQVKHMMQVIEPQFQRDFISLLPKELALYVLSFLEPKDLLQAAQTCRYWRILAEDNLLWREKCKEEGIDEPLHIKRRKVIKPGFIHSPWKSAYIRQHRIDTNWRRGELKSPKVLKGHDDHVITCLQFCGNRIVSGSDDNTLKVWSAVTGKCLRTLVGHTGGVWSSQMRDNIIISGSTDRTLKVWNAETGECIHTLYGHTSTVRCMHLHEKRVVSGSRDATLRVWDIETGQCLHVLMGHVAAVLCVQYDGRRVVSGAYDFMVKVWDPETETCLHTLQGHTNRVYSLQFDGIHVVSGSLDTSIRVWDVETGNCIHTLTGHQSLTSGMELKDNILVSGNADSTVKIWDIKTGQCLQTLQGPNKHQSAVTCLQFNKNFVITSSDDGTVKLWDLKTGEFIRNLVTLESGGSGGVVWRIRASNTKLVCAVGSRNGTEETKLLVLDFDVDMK
T1 sequence (P63208 2-163 partner): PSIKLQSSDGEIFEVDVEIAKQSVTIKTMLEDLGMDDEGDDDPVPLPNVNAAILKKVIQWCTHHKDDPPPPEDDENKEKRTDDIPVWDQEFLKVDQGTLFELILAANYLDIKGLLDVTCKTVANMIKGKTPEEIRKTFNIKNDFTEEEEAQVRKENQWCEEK
T2 sequence (Q969H0 64-707 R505L): as the sequence (Q969H0 64-707 R505L) above
T2 sequence (P63208 2-163 partner): as the sequence (P63208 2-163 partner) above

SMILES | EC50 (FBW7^ARG+pCycE; [1]) | Emax (FBW7^ARG+pCycE) | EC50 (FBW7^ARG+pCycE; [2]) | activation at 26.1 µM (FBW7^ARG+pCycE; [3]) | activation at 26.1 µM (FBW7^ARG+pCycE; [4]) | EC50 (FBW7^ARG (RLFBW7) alone; [5]) | Emax (FBW7^ARG (RLFBW7) alone) | EC50 (FBW7^ARG (RLFBW7) alone; [6]) | CyCEP ACT DCSRUN2 Averaged Max % Response (pCycE alone) | EC50 (pCycE alone)
CCCOc1ccc(C2C(C(=O)OC)=CN(CCOC)C=C2C(=O)OC)cc1 [SR-01000259436-1] | 21.9 µM | 10.7% | > 65.3 µM | 2.9 ± 0.27% | 2.13% | 19 µM | 5.19% | > 65.3 µM | 0.31% | > 65.3 µM
CCN(CC)c1ccc2cc(-c3nc(C)cs3)c(=O)oc2c1 [SR-01000312020-1] | 8.2 µM | 13.9% | > 65.3 µM | 5.16 ± 7.04% | 3.44% | 11.6 µM | 6.67% | > 65.3 µM | 0.77% | > 65.3 µM
COc1cccc(/C=N/c2cnn(C)c2C(N)=O)c1O [SR-01000314216-1] | 26.4 µM | 22.7% | > 65.3 µM | 4.06 ± 0.07% | 3.64% | – | 0.25% | > 65.3 µM | 0.18% | > 65.3 µM
CCN(CC)c1ccc2c(c1)OC(N)=C(C#N)C2c1ccccc1 (stereo not drawn) [SR-01000320053-1] | 31.4 µM | 13.7% | > 65.3 µM | 2.14 ± 0.69% | 3.43% | 75.4 µM | 6.24% | > 65.3 µM | 0.22% | > 65.3 µM
COc1ccccc1-c1ccc(=O)n(CC(=O)Nc2ccc(C(=O)N3CCCC3)cc2)n1 [SR-01000332536-1] | 19.1 µM | 18% | > 65.3 µM | 4.43 ± 0.25% | 4.09% | 6.3 µM | 0.2% | > 65.3 µM | 0.12% | > 65.3 µM
CCC(c1nnnn1CCC(C)C)N1CCN(C(=O)c2ccco2)CC1 (stereo not drawn) [SR-01000340422-1] | 24 µM | 6.45% | > 65.3 µM | 2.97 ± 0.23% | 2.16% | 2.3 µM | 0.87% | > 65.3 µM | 0.18% | > 65.3 µM
Cc1ccc2nc(SCC(=O)Nc3ncc(C)s3)c(C#N)cc2c1 [SR-01000340506-1] | 14.9 µM | 10.7% | > 65.3 µM | 3.87 ± 0.19% | 3.77% | 16.2 µM | 35.6% | > 65.3 µM | 0.24% | > 65.3 µM

Now from value to compound, other results behind:

EC50 (FBW7^ARG+pCycE; [1]) | Emax (FBW7^ARG+pCycE) | EC50 (FBW7^ARG+pCycE; [2]) | activation at 26.1 µM (FBW7^ARG+pCycE; [3]) | activation at 26.1 µM (FBW7^ARG+pCycE; [4]) | EC50 (FBW7^ARG (RLFBW7) alone; [5]) | Emax (FBW7^ARG (RLFBW7) alone) | EC50 (FBW7^ARG (RLFBW7) alone; [6]) | SMILES | CyCEP ACT DCSRUN2 Averaged Max % Response (pCycE alone) | EC50 (pCycE alone)
18 µM | 22.9% | > 65.3 µM | 7.92 ± 0.35% | 2.77% | 47.6 µM | 0.67% | > 65.3 µM | CCSc1nnc(C2CCN(CC(=O)Nc3cccc4ccccc34)CC2)n1C [SR-01000349710-1] | 0.22% | > 65.3 µM
0.009 µM | 6.4% | > 65.3 µM | 2.54 ± 0.42% | 1.95% | 11.9 µM | 2.7% | > 65.3 µM | O=c1c2cnn(-c3ccccc3)c2nnn1Cc1cccnc1 [SR-01000355082-1] | 0.12% | > 65.3 µM
21.1 µM | 15.2% | > 65.3 µM | 2.38 ± 0.5% | 6.3% | 23.7 µM | 0.39% | > 65.3 µM | COc1cccc(/C=N/c2ccc3[nH]ncc3c2)c1O [SR-01000359514-1] | 0.13% | > 65.3 µM
12.7 µM | 6.99% | > 65.3 µM | 2.06 ± 0.33% | 2.3% | 13.9 µM | -0.189% | > 65.3 µM | CC(C)c1ccc(Nc2nccn3c(-c4ccoc4)cnc23)cc1 [SR-01000376943-1] | 1.39% | > 65.3 µM
0.0903 µM | 6.66% | > 65.3 µM | 3.47 ± 0.47% | 2.82% | 0.011 µM | 1.12% | > 65.3 µM | CC(NC(=O)c1cnc2ccccn12)c1ccc(F)cc1 (stereo not drawn) [SR-01000378746-1] | 0.23% | > 65.3 µM
20.3 µM | 18.1% | > 65.3 µM | 1.92 ± 0.3% | 6.66% | 0.229 µM | 0.83% | > 65.3 µM | O=C(c1ccco1)N1CCN(c2ncc(-c3ccccc3CO)n3ccnc23)CC1 [SR-01000381408-1] | 0.18% | > 65.3 µM
0.127 µM | 6.14% | > 65.3 µM | 2.27 ± 0.17% | 2.03% | – | 0.49% | > 65.3 µM | CC(C)[C@@H](CO)Nc1ccc2ncc(-c3cccc(Cl)c3)n2n1 [SR-01000383396-1] | 0.27% | > 65.3 µM
0.0017 µM | 7.11% | > 59.3 µM | 2.95 ± 3.6% | 1.88% | – | -0.422% | > 59.3 µM | COc1ccc(OC)c(/C=C2/N=C(c3cccc([N+](=O)[O-])c3)OC2=O)c1 [SR-01000414795-1] | 0.02% | > 59.3 µM
